# Reference: PubChem BioAssay (NCI)
# “And” between values parts separate entries of the source, which are not always exact repeats. Identical values can stand only once.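 Briefly, cells in 96-well plates were exposed to five compound concentrations for 48 h, and endpoints were estimated by linear interpolation. GI50: concentration for 50% inhibition of growth. Definition used: TGI = concentration required for complete inhibition of growth.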
# What was measured:
# Assay in all cases: growth of human tumour cells (NCI), 48 h
# UACC-62 melanoma = tested on: UACC-62 melanoma
# UACC-257 melanoma = tested on: UACC-257 melanoma
# SNB-75 CNS = tested on: SNB-75 CNS
# SF-295 CNS = tested on: SF-295 CNS
# M14 melanoma = tested on: M14 melanoma
# EKVX NSCLC = tested on: EKVX NSCLC
# MALME-3M melanoma = tested on: MALME-3M melanoma
# HOP-62 NSCLC = tested on: HOP-62 NSCLC
# ACHN renal = tested on: ACHN renal
# RPMI-8226 leukemia = tested on: RPMI-8226 leukemia
Compound,TGI (UACC-62 melanoma),TGI (UACC-257 melanoma),TGI (SNB-75 CNS) [µM],TGI (SF-295 CNS) [µM],TGI (M14 melanoma),TGI (EKVX NSCLC),TGI (MALME-3M melanoma),TGI (HOP-62 NSCLC) [µM],TGI (ACHN renal) [µM],GI50 (UACC-257 melanoma) [µM],GI50 (SNB-75 CNS) [µM],GI50 (SF-295 CNS) [µM],GI50 (M14 melanoma),GI50 (EKVX NSCLC) [µM],GI50 (HOP-62 NSCLC) [µM],GI50 (RPMI-8226 leukemia) [µM],TGI (RPMI-8226 leukemia) [µM],GI50 (ACHN renal) [µM],GI50 (UACC-62 melanoma) [µM],GI50 (MALME-3M melanoma) [µM]
Cc1nc2c(=O)n(C)c(=O)nc-2n(-c2ccc(Cl)cc2)c1C,> 100 µM,> 100 µM,> 100,> 100,> 100 µM,> 100 µM,> 100 µM,> 100,> 100,–,–,–,–,–,–,–,–,–,–,–
COc1ccc(N2CCN(CC(=O)N3CCN(c4nnc(-c5ccc(Cl)cc5)c(-c5ccc(Cl)cc5)n4)CC3)CC2)cc1,–,> 100 µM,55.4,> 100,> 100 µM,> 100 µM,–,> 100,55.6,18.9,13.2,7.09,12.7 µM,> 100,> 100,6.05,> 100,6.42,–,–
COc1cccc2c1C(=N)c1c(O)c3c(c(O)c1C2=O)C[C@@](O)(C(C)=O)C[C@@H]3OC1CC(N)C(O)C(C)O1 (stereo not given in full),1.61 µM and 1.9 µM and 2.61 µM,5.01 µM and 12.1 µM and 6.67 µM,–,–,4.58 µM and 1.59 µM,3.82 µM and 7.64 µM and 2.29 µM,1.83 µM and 5.14 µM and 2.21 µM,–,–,–,–,–,0.705 µM and 0.206 µM,–,–,–,–,0.472,–,–
CNCc1ccc(C)c(NC(=O)c2ccc(Nc3nc(-c4ccccc4)c4ccccc4n3)cc2)c1,–,3.73 µM,2.32,3.56,3.4 µM,3.35 µM,–,3.67,3.82,1.92,0.842,1.84,1.83 µM,1.64,1.96,–,–,2.01,–,–
N#Cc1c(-c2ccc(Cl)cc2)n([O-])c2ccccc2[n+]1=O,33.6 µM,34.4 µM,39.5,30.3,–,20.5 µM,–,30.9,16.8,18.2,21.4,16.4,–,5.63,16.7,1.99,5.11,4.2,17.2,–
COCC(O)CN1C(N)=NC(O)C1O (stereo not given),–,> 100 µM,> 100,> 100,> 100 µM,> 100 µM,> 100 µM,> 100,> 100,–,–,–,–,–,–,–,–,–,–,–
CCOC(=O)c1ccccc1NC(c1ccccc1)c1ccc2cccnc2c1O (stereo not given),–,21.5 µM,89.8,> 100,–,–,–,> 100,> 100,2.98,2.6,3.24,–,–,3.31,3.06,> 100,3.07,–,–
COc1ccc(/C=C2\CN(Cc3cn(CCCNc4ccnc5cc(Cl)ccc45)nn3)C/C(=C\c3ccc(OC)cc3)C2=O)cc1,32.1 µM,23.3 µM,19.7,31.4,16.2 µM,–,5.37 µM,35.5,25.6,8.28,3.89,14.2,4.15 µM,–,19.4,2.22,10.3,12.9,16.3,2.09
